# In patent publication US20240124528A1, “ANTAGONIST OF INTERLEUKIN-17B RECEPTOR (IL-17RB) AND USE THEREOF” (Academia Sinica, priority 2020, published 2024):
# Assays:
# IL-17RB = assay: Immunoblotting/IP of IL-17B-induced IL-17RB signaling in CFPAC1 cells after peptide pretreatment; assay type: cell-based, human; settings: CFPAC1 cells pretreated with peptides 30 mins, then rIL-17B 30 mins
# From the text: FIGS. 7A to 7J include charts showing that disruption of the interaction between IL-17RB and MLK4 by the loop peptide blocks oncogenic progression. (FIG. 7A) Peptides TAT48-57 (Control) (SEQ ID NO: 21) and TAT-IL-17RB403-416 (Loop) (SEQ ID NO: 30) used for the following experiments. (FIG. 7B) Immunoblotting analysis of IL-17RB binding to MLK4 with Loop peptide treatment. 293T cells expressing Flag-MLK4 and HA-IL-17RB were pretreated with the control and loop peptides with different dose (0, 0.1, 1, 10, 50, 100 ng/ml) for 30 mins, and then added rIL-17B for 30 mins. The cell lysates were reciprocally co-immunoprecipitated with anti-Flag and anti-HA and blotted with the indicated antibodies or directly immunoblotted with the indicated antibodies as the input controls. (FIG. 7C to FIG. 7F) CFPAC1cells were pretreated with the peptides for 30 mins and then added rIL-17B for 30 mins. The cell lysates were immunoblotted with the indicated antibodies or immunoprecipitated with anti-IL-17RB or control IgG and blotted with the indicated antibodies (FIG. 7C). CFPAC1 cells were pretreated with TAT48-57 or TAT-IL-17RB403-416 (50 ng/ml) 30 mins and then added rIL-17B for two hrs. CCL20 and TFF/mRNA expression of these cells were measured by RT-qPCR (n=3) (FIG. 7D), the same cells were for invasion assay (n=4) (FIG. 7E) and SACF assay (n=4) (FIG. 7F). (FIG. 7G) The scheme of the treatment of transgenic pancreatic cancer EKP mice (LSL-Kras^+/G12D; p53^+/−; Ela-Cre^ERT; plus cerulein) with the Loop peptides. (FIG. 7H) IHC images of pancreases stained with anti-P-Y447 antibody. Scale bars: 50 μm. The pancreas tissues were from EKP mice after treated with the control or loop peptides at Day 42. The Kras^+/+ mice (Kras^+/+; p53^+/−; Ela-Cre^ERT; plus cerulein) were used as the non-cancerous control. Boxes indicate the enlarged areas. (FIG. 7I) The experimental EKP mice (n=7 for each group) were euthanized at Day 56, and the metastatic tumor nodules in the lungs were counted. (FIG. 7J) Kaplan-Meier survival curve plot of the lifespans of the experimental EKP mice (n=7 for each group). […]
# [1] = system: transgenic pancreatic cancer EKP mice; assay: Spontaneous pancreatic cancer model, EKP mice plus cerulein; assay type: in vivo, mouse; settings: for recruitment of MDSC and M2 macrophage: pancreatic tissues, flow cytometry
# From the text: FIGS. 7A to 7J include charts showing that disruption of the interaction between IL-17RB and MLK4 by the loop peptide blocks oncogenic progression. (FIG. 7A) Peptides TAT48-57 (Control) (SEQ ID NO: 21) and TAT-IL-17RB403-416 (Loop) (SEQ ID NO: 30) used for the following experiments. (FIG. 7B) Immunoblotting analysis of IL-17RB binding to MLK4 with Loop peptide treatment. 293T cells expressing Flag-MLK4 and HA-IL-17RB were pretreated with the control and loop peptides with different dose (0, 0.1, 1, 10, 50, 100 ng/ml) for 30 mins, and then added rIL-17B for 30 mins. The cell lysates were reciprocally co-immunoprecipitated with anti-Flag and anti-HA and blotted with the indicated antibodies or directly immunoblotted with the indicated antibodies as the input controls. (FIG. 7C to FIG. 7F) CFPAC1cells were pretreated with the peptides for 30 mins and then added rIL-17B for 30 mins. The cell lysates were immunoblotted with the indicated antibodies or immunoprecipitated with anti-IL-17RB or control IgG and blotted with the indicated antibodies (FIG. 7C). CFPAC1 cells were pretreated with TAT48-57 or TAT-IL-17RB403-416 (50 ng/ml) 30 mins and then added rIL-17B for two hrs. CCL20 and TFF/mRNA expression of these cells were measured by RT-qPCR (n=3) (FIG. 7D), the same cells were for invasion assay (n=4) (FIG. 7E) and SACF assay (n=4) (FIG. 7F). (FIG. 7G) The scheme of the treatment of transgenic pancreatic cancer EKP mice (LSL-Kras^+/G12D; p53^+/−; Ela-Cre^ERT; plus cerulein) with the Loop peptides. (FIG. 7H) IHC images of pancreases stained with anti-P-Y447 antibody. Scale bars: 50 μm. The pancreas tissues were from EKP mice after treated with the control or loop peptides at Day 42. The Kras^+/+ mice (Kras^+/+; p53^+/−; Ela-Cre^ERT; plus cerulein) were used as the non-cancerous control. Boxes indicate the enlarged areas. (FIG. 7I) The experimental EKP mice (n=7 for each group) were euthanized at Day 56, and the metastatic tumor nodules in the lungs were counted. (FIG. 7J) Kaplan-Meier survival curve plot of the lifespans of the experimental EKP mice (n=7 for each group). Log-rank test was used.
# FIGS. 20A to 20D include charts showing that treatment of TAT-IL-17RB403-416 peptide reduces the recruitment of MDSC and M2 macrophage. (FIG. 20A) Pancreatic tissues of EKP mice (LSL-Kras+/G12D; p53+/−; Ela-Cre^ERT; plus cerulein) (n=7 for each group) treated with TAT-IL-17RB403-416 (Loop) peptides were examined the tumor-immune modulating capacity by flow cytometry with specific cell surface markers as indicated. […] Data are mean±s.d. *P<0.05, **P<0.01 by two-tailed Student's t-test.
# Formalin-fixed paraffin-embedded primary tumor tissue sections were used for IHC. Heat-induced antigen retrieval was performed using 0.1M citrate buffer, pH 6.0 and autoclaved for 20 mins. Endogenous peroxidase was eliminated with 3% H2O2. Slides were stained with an in-house-generated anti-IL-17RB antibody (A81, 1:2000) and anti-P-Y447 (1:500), respectively in PBS/10% FBS overnight at 4° C. After washing, slides were incubated with anti-rabbit/mouse HRP polymer before visualization with liquid diaminobenzidine tetrahydrochloride plus substrate DAB chromogen from Dako REAL EnVision (Carpinteria, CA). All slides were counterstained with hematoxylin.
# Tumors were excised, weighed and measured. Approximately half of each dissected tumor was fixed in formalin for histopathologic analysis. The remaining tumor sections were placed in PBS with 1% (v/v) FBS and mechanically minced. […]
sequence,measurement,setting,value
"RKKRRQRRRVCDGTCGKSEGSPS (IL-17RB inhibitory peptide, fusion protein) [loop peptide]",ERK1/2 phosphorylation induced by IL-17B,IL-17RB,abolished
same,tyrosine phosphorylation of IL-17RB induced by IL-17B,IL-17RB,abolished
same,ubiquitination of IL-17RB induced by IL-17B,IL-17RB,abolished
same,lung metastasis nodule formation,[1]; EKP mice euthanized at day 56,suppressed
same,expression of P-Y447 IL-17RB in pancreatic tissues (IHC),"[1]; EKP mice, Day 42",diminished
same,recruitment of MDSC and M2 macrophage,[1]; EKP mice,reduced
same,recruitment of MDSC and M2 macrophage,"[1]; EKP mice, listed as TAT-IL-17RB403-416",reduces
same,lifespan (Kaplan-Meier survival),"[1]; EKP mice, second treatment protocol",significantly prolonged
